What is called IC50 is the midpoint of a concentration-inhibition curve. A lower IC50 goes with greater potency.

This test has as its target PIK3CG (human) (UniProt P48736). Put plainly: Assessment of PIK3CG Kinase Activity.

Chain of PIK3CG (human) (P48736 whole entry, looked up): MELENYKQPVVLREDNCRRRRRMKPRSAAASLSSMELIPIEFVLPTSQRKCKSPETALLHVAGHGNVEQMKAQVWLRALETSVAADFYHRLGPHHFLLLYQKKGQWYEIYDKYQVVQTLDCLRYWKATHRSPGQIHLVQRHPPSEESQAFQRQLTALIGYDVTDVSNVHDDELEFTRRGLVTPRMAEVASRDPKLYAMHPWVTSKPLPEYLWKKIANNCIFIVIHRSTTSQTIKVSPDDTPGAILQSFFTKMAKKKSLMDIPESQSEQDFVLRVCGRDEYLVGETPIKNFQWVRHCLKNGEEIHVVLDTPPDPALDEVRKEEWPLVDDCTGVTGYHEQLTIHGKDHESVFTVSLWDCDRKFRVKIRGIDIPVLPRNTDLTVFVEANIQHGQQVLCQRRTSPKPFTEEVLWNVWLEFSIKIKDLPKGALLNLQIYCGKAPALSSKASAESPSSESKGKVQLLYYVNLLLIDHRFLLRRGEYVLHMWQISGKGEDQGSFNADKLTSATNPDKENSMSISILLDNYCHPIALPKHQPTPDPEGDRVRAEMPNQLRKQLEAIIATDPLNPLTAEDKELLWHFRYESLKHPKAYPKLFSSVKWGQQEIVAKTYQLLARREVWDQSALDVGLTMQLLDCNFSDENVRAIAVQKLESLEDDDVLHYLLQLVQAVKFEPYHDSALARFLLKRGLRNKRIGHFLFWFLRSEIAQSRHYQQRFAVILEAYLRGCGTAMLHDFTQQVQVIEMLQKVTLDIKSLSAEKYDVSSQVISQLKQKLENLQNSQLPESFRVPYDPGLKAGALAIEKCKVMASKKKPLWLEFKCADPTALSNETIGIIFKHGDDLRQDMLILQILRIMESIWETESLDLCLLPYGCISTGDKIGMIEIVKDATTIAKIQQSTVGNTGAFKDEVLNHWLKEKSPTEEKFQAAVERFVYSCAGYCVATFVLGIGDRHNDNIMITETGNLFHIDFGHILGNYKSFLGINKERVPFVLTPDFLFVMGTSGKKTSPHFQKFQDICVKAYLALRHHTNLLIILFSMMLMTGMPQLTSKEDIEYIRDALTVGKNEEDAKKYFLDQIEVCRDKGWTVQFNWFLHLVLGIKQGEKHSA

`CC(=O)Nc1nc2c(s1)-c1c(cnn1-c1ccc(C(=O)N[C@H](CC(C)C)C(N)=O)cc1Cl)CC2` showed an IC50 of less than 800 nM.
Consider `CCCn1cc2c(n1)-c1sc(NC(C)=O)nc1CC2`, for which the IC50 is less than 800 nM.
Under `CC(=O)Nc1nc2c(s1)-c1nc(N(C)CCCN(C)C)ncc1CC2` stands less than 800 nM; under `CC(=O)Nc1nc2c(s1)-c1nc(N(C)CCN3CCN(C)CC3)ncc1CC2`, less than 800 nM.
Under `CC(=O)Nc1nc2c(s1)-c1c(cnn1-c1ccc(C(=O)N(C)CC(C)O)cc1)CC2` (configuration not stated) stands less than 800 nM.
Under `CC(=O)Nc1nc2c(s1)-c1c(c(-c3cn(C)cn3)nn1-c1ccccc1Cl)CC2` stands less than 800 nM; under `CC(=O)Nc1nc2c(s1)-c1c(cnn1-c1ccc(C(=O)N[C@@H](CCCNC(=N)N)C(N)=O)cc1Cl)CC2`, less than 800 nM.
With `CNS(=O)(=O)c1ccc(-n2ncc3c2-c2sc(NC(C)=O)nc2CC3)cc1`, the IC50 is less than 800 nM.
Under `CC(=O)Nc1nc2c(s1)-c1nc(-c3ccccc3Cl)ncc1C2` stands less than 800 nM; under `CC(=O)Nc1nc2c(s1)-c1c(cnn1-c1ccc(C(=O)N3CCc4ccccc4C3)cc1)CC2`, less than 800 nM; under `COc1ccccc1-n1ncc2c1-c1sc(NC(C)=O)nc1CC2`, less than 800 nM.
The result for `CC(=O)Nc1nc2c(s1)-c1c(cnn1-c1ccccc1C)C2` reads less than 800 nM.
As to `CC(=O)Nc1nc2c(s1)-c1cc(NC(C)C)ccc1CC2`, the IC50 was less than 800 nM.
The result for `CN(C)C(=O)Nc1nc2c(s1)-c1c(cnn1-c1ccccc1)C2` reads less than 800 nM; that for `CCCn1ncc2c1-c1sc(NC(C)=O)nc1CC2`, less than 800 nM; that for `COc1cccc(-n2ncc3c2-c2sc(NC(C)=O)nc2CC3)c1`, less than 800 nM.
The compound `CN(C)CCNC(=O)Nc1nc2c(s1)-c1c(cnn1-c1ccccc1)CC2` returned an IC50 of less than 800 nM.
For `CN(C)C(=O)Nc1nc2c(s1)-c1c(cnn1-c1ccccc1)CC2`, the IC50 was less than 800 nM.
Turning to `CC(=O)Nc1nc2c(s1)-c1c(cnn1-c1ccc(C(=O)N3CCN(CCO)CC3)cc1)CC2`, the IC50 was less than 800 nM.
Under `CC(=O)Nc1nc2c(s1)-c1c(cnn1-c1ccccc1F)CC2` stands less than 800 nM; under `COc1ccc(-n2ncc3c2-c2sc(NC(C)=O)nc2C3)cc1`, less than 800 nM.
The result for `CC(=O)Nc1nc2c(s1)-c1c(cnn1-c1ccc(C(=O)NCCc3cccnc3)cc1)CC2` reads less than 800 nM; that for `CC(=O)Nc1nc2c(s1)-c1c(cnn1-c1ccc(C(=O)Nc3ccc(N4CCN(C)CC4)cc3)cc1Cl)CC2`, less than 800 nM; that for `CC(=O)Nc1nc2c(s1)-c1c(cnn1-c1ccc(C)cc1)CC2`, less than 800 nM.
The compound `CC(=O)Nc1nc2c(s1)-c1c(cnn1-c1cc(C)ccc1C)CC2` had an IC50 of less than 800 nM.
`CC(=O)Nc1nc2c(s1)-c1c(cnn1-c1ccc(C(=O)N[C@H]3CC[C@H](N(C)C)CC3)cc1)CC2` came in with an IC50 of less than 800 nM.
The result for `CC(=O)Nc1nc2c(s1)-c1c(c(-c3ccco3)nn1-c1ccccc1Cl)CC2` reads less than 800 nM.
Compound `CC(=O)Nc1nc2c(s1)-c1c(c(-c3ccccc3)nn1-c1ccccc1F)CC2` came in with an IC50 of less than 800 nM.
Under `CC(=O)Nc1nc2c(s1)-c1c(c(C(=O)O)nn1-c1ccccc1)CC2` stands less than 800 nM; under `CN1CCN(C(=O)Nc2nc3c(s2)-c2nc(-c4ccccc4)ncc2CC3)CC1`, less than 800 nM; under `CC(=O)Nc1nc2c(s1)-c1c(cnn1-c1ccccc1)C2`, less than 800 nM.
Under `CC(=O)Nc1nc2c(s1)-c1c(cnn1-c1ccc(C(=O)N[C@H]3CC[C@H](N4C[C@@H](C)O[C@@H](C)C4)CC3)cc1)CC2` stands less than 800 nM; under `CC(=O)Nc1nc2c(s1)-c1c(cnn1-c1ccc3nc[nH]c3c1)CC2`, less than 800 nM.
Under `CC(=O)Nc1nc2c(s1)-c1c(cnn1-c1ccccc1Br)CC2` stands less than 800 nM; under `CC(=O)Nc1ccc2c(c1)-c1sc(NC(C)=O)nc1CC2`, less than 800 nM.
For `CC(=O)Nc1nc2c(s1)-c1c(cnn1-c1ccc(C(=O)N[C@H]3CC[C@@H](N4CCN(C)CC4)CC3)cc1)CC2`, the IC50 is less than 800 nM.
The result for `CC(=O)Nc1nc2c(s1)-c1c(cnn1-c1ccc(C#N)cc1)CC2` reads less than 800 nM; that for `NCC#CCNC(=O)Nc1nc2c(s1)-c1c(cnn1-c1ccccc1)CC2`, less than 800 nM.
`CC(=O)Nc1nc2c(s1)-c1c(cnn1-c1ccc(C(=O)NCC3CC3)cc1)CC2`: the IC50 was less than 800 nM.
Under `CC(=O)Nc1nc2c(s1)-c1c(cnn1-c1ccc(C(=O)N[C@H]3CCc4nc(N)sc4C3)cc1)CC2` stands less than 800 nM; under `Cc1ccccc1-c1ncc2c(n1)-c1sc(NC(N)=O)nc1CC2`, less than 800 nM.
Under `CC(=O)Nc1nc2c(s1)-c1nn(C(=O)c3ccccc3Cl)cc1CC2` stands less than 800 nM; under `CC(=O)Nc1nc2c(s1)-c1c(cnn1-c1ccc(C(=O)NCCN3CCNC3=O)cc1)CC2`, less than 800 nM.
Under `CC(=O)Nc1nc2c(s1)-c1c(cnn1-c1ccc(C(=O)NCCCCCCNC(=O)c3ccccc3)cc1)CC2` stands less than 800 nM.
As to `C=C1CCN(C(=O)c2ccc(-n3ncc4c3-c3sc(NC(C)=O)nc3CC4)cc2)CC1`, the IC50 is less than 800 nM.
Compound `CC(=O)Nc1nc2c(s1)-c1c(cnn1-c1ccc(C(=O)NC(C)(C)CN3CCCCC3)cc1)CC2` returned an IC50 of less than 800 nM.
Under `CC(=O)Nc1nc2c(s1)-c1nc(SCCCN(C)C)ncc1CC2` stands less than 800 nM; under `CC(=O)Nc1nc2c(s1)-c1c(c(-c3ccoc3)nn1-c1ccccc1Cl)CC2`, less than 800 nM; under `CC(=O)Nc1nc2c(s1)-c1c(cnn1C(=O)C(C)C)CC2`, less than 800 nM.
Under `CC(=O)Nc1nc2c(s1)-c1c(c([C@H]3CCCO3)nn1-c1ccccc1)CC2` stands less than 800 nM.
The result for `O=C(NCCn1ccnc1)Nc1nc2c(s1)-c1c(cnn1-c1ccccc1Cl)C2` reads less than 800 nM; that for `CC(=O)Nc1nc2c(s1)-c1c(cnn1-c1ccc(C(=O)N[C@H](C(N)=O)C(C)C)cc1Cl)CC2`, less than 800 nM.
Regarding `C=CCNC(=O)c1ccc(-n2ncc3c2-c2sc(NC(C)=O)nc2CC3)cc1`, the IC50 was less than 800 nM.
Under `CC(=O)Nc1nc2c(s1)-c1nn(C(C)=O)cc1CC2` stands less than 800 nM.
Under `CC(=O)Nc1nc2c(s1)-c1nc(-c3cccc(Cl)c3)ncc1CC2` stands less than 800 nM; under `CN(C)CCCC(=O)Nc1nc2c(s1)-c1c(c(-c3ccccc3)nn1-c1ccccc1Cl)CC2`, less than 800 nM.
Under `CC(=O)Nc1nc2c(s1)-c1c(cnn1-c1ccc(C(=O)N[C@H]3CC[C@@H](N4CCOCC4)CC3)cc1)CC2` stands less than 800 nM; under `CC(=O)Nc1nc2c(s1)-c1c(cnn1-c1ccc(C(=O)N3CCN(c4ccncc4)CC3)cc1)CC2`, less than 800 nM; under `CC(=O)Nc1nc2c(s1)-c1c(cnn1-c1ccc(C(=O)Nc3ccc(N4CCN(C)CC4)cc3)cc1)CC2`, less than 800 nM.
Regarding `CC(=O)Nc1nc2c(s1)-c1c(cnn1-c1ccc(C(=O)NCc3ccccn3)cc1)CC2`, the IC50 is less than 800 nM.
In the case of `CC(=O)Nc1nc2c(s1)-c1c(cnn1-c1ccc(C(=O)NCCC(=O)O)cc1)CC2`, the IC50 was less than 800 nM.
The result for `CC(=O)Nc1nc2c(s1)-c1c(c(-c3cn(C)cn3)nn1-c1ccccc1)CC2` reads less than 800 nM.
Under `CC(=O)Nc1nc2c(s1)-c1nn(-c3ccc(C(=O)NC4CCN(C)CC4)cc3Cl)c(-c3ccco3)c1CC2` stands less than 800 nM; under `CC(=O)Nc1nc2c(s1)-c1c(c(C#C[Si](C)(C)C)nn1-c1ccccc1Cl)CC2`, less than 800 nM; under `CC(=O)Nc1nc2c(s1)-c1c(cnn1-c1ccc(C(=O)N3CCC(N4CCCCC4)CC3)cc1)CC2`, less than 800 nM.
The result for `COCc1nn(-c2ccc(C(=O)NCc3ccncc3)cc2Cl)c2c1CCc1nc(NC(C)=O)sc1-2` reads less than 800 nM; that for `CC(=O)Nc1nc2c(s1)-c1c(cnn1-c1ccc(CC(=O)N(C)CC(=O)N(C)C)cc1)CC2`, less than 800 nM.
`CC(=O)Nc1nc2c(s1)-c1nn(-c3ccc(C(=O)N[C@H]4CC[C@H](N5CCCC5)CC4)cc3)c(-c3ccco3)c1CC2`: the IC50 was less than 800 nM.
The result for `CC(=O)Nc1nc2c(s1)-c1c(cnn1-c1ccc(C(=O)N[C@H]3CC[C@H](N4CCCC4)CC3)cc1)CC2` reads less than 800 nM; that for `O=C(Nc1nc2c(s1)-c1c(cnn1-c1ccccc1)CC2)N1CCOCC1`, less than 800 nM.
The result for `CC(=O)Nc1nc2c(s1)-c1c(cnn1-c1ccc(S(=O)(=O)N(C)C)cc1)CC2` reads less than 800 nM.
The result for `COc1ccccc1-c1ncc2c(n1)-c1sc(NC(N)=O)nc1CC2` reads less than 800 nM; that for `CC(=O)Nc1nc2c(s1)-c1c(c(-c3ccoc3)nn1-c1ccccc1C)CC2`, less than 800 nM; that for `CC(=O)Nc1nc2c(s1)-c1c(cnn1-c1ccc(C(=O)N[C@@H]3CCc4nc(N)sc4C3)cc1)CC2`, less than 800 nM.
As for `CC(=O)Nc1nc2c(s1)-c1c(cnn1-c1cc(S(N)(=O)=O)ccc1Cl)CC2`, the IC50 was less than 800 nM.
`CCN(CC)CC1CCCCN1C(=O)Cc1ccc(-n2ncc3c2-c2sc(NC(C)=O)nc2CC3)cc1` (configuration not stated) displayed an IC50 of less than 800 nM.
The result for `CC(=O)Nc1nc2c(s1)-c1c(cnn1-c1ccncc1)CC2` reads less than 800 nM; that for `CN(C)CCCC(=O)Nc1nc2c(s1)-c1nc(-c3ccccc3)ncc1CC2`, less than 800 nM; that for `CC(=O)Nc1nc2c(s1)-c1c(cnn1-c1ccc3ncsc3c1)CC2`, less than 800 nM.
The result for `CC(=O)Nc1nc2c(s1)-c1c(cnn1-c1ccc(C(=O)N3CCOCC3)cc1Cl)CC2` reads less than 800 nM.
The result for `CC(=O)Nc1nc2c(s1)-c1c(c(-c3ccco3)nn1-c1ccccc1)CC2` reads less than 800 nM.
Take `CC(=O)Nc1nc2c(s1)-c1c(cnn1-c1ccc(C(=O)N3CCC(O)CC3)cc1)CC2`: the IC50 is less than 800 nM.
Under `CCc1ccccc1-n1ncc2c1-c1sc(NC(C)=O)nc1C2` stands less than 800 nM; under `CC(=O)Nc1nc2c(s1)-c1c(cnn1-c1ccc(C(=O)N3CCC(N4CCOCC4)CC3)cc1Cl)CC2`, less than 800 nM; under `CC(=O)Nc1nc2c(s1)-c1c(c(N)nn1-c1ccccc1)CC2`, less than 800 nM.
Take `CC(=O)Nc1nc2c(s1)-c1c(cnn1-c1cccc(C(F)(F)F)c1)CC2`: the IC50 was less than 800 nM.
Under `CC(=O)Nc1nc2c(s1)-c1c(cnn1-c1ccc(C(=O)N[C@H]3CC[C@@H](N4CCCCC4)CC3)cc1)CC2` stands less than 800 nM.

The values above are taken from the Kinase Knowledgebase extract (Sharma et al. 2016).
